The text below walks through data of US8011774B2, “Azo dye, colored composition, heat-sensitive transfer recording ink sheet, heat-sensitive transfer recording method, color toner, inkjet ink and color filter” (Fujifilm Corporation, priority 2006, dated 2011).

Holding throughout (format): physicochemical
Data set [1] in a line: Maximum absorption wavelength of absorption spectrum in ethyl acetate solution. The following applies: 1×10^−6 mol/L, optical path length 10 mm. Here is the method: A mixture of 3.53 g of Intermediate (7a) (0.01 mol), 2.76 g of potassium carbonate (0.02 mol) and dimethylacetamide (15 ml) was stirred at 0° C. To the mixture was gradually dropped 4.23 g (0.03 mol) of methyl iodide. After stirring for 3 hours at room temperature, 50 ml of water was added thereto. After extraction with 50 ml of ethyl acetate, the extracted solution was washed with saturated brine. Then, the extracted solution was concentrated with a rotary evaporator. Thus-obtained residue was purified using a silica gel chromatography (developing solvent: ethyl acetate/hexane=1/4, v/v). A yellow powder of Exemplified compound (7) was obtained. Yield: 3.01 g (82%), Melting Point: 192° C. λmax (ethyl acetate solution) of the Exemplified compound (7) was 442 nm.
Exemplified compounds (1), (5), (8), (9), (10), (13) and (23) were synthesized in the manner described above. In Table 1 shown below, are indicated the maximum absorption wavelength in each of absorption spectra of the thus-obtained Exemplified compounds (1), (5), (8), (9), (10), (13) and (23) in an ethyl acetate solution (Density: 1×10^−6 mol/L, Optical path length: 10 mm) and melting points of these compounds, together with the Exemplified compounds (7) obtained in the Synthesis Examples.

Data set [2] in a line: Light stability (light resistance) of transferred dye image under Xenon light. The settings on record: Xenon light 17,000 lux, 7 days; residual ratio of Status A reflection density 1.0. Here is the method:
Next, each of the thus image-recorded thermal transfer image-receiving material was exposed to Xenon light (17,000 lux) for 7 days to examine light stability (light resistance) of the dye image. Status A reflection densities after exposure were measured in the portions indicating status A reflection density of 1.0. A stability of the image was evaluated in terms of a residual ratio (percentage) based on the reflection destiny before exposure according to the following three grades:
A: 80% or more, but 100% or less
B: 60% or more, but […]

Data set [3] can be described thus: Deposition of dye with lapse of time in the ink sheet, examined by eye. Set-up: key: A: No precipitation is observed.; B: Precipitation is slightly observed.; C: Precipitation is apparently observed. The settings on record: deposition of dye with a lapse of time in the ink sheet. From the text: Further, deposition of dyes with a lapse of time in the ink sheet was examined by a native eye, thereby to evaluate based on the following three grades:
A: No precipitation is observed.
B: Precipitation is slightly observed.
C: Precipitation is apparently observed.

A short description of data set [4]: Solubility of dye when preparing ink sheet dye-providing layer coating composition. The following applies: dye 5.5 parts, polyvinylbutyral resin, methyl ethyl ketone/toluene (1/1) coating composition. Also noted: key: A: The dye easily dissolves.; B: The dye dissolves.; C: The dye is sparingly soluble, but dissolves. How it is done:
As a support, was used a 6 μm thick polyester film, a back surface of which had been subjected to a heat resistant lubricating processing with a 1 μm thick thermosetting acrylic resin (Lumirror (trade name), a product of Toray). On the front surface of the support, the following dye-providing layer-coating composition was coated by a wire bar coating so that a dry thinness of the dye-providing layer became 1 μm. Thus, Ink sheet 1 was prepared.
Solubility of these dyes contained in these ink sheets were evaluated according to the following three grades;
A: The dye easily dissolves.
C: The dye is sparingly soluble, but dissolves.

The structures appear in SMILES notation.

As for `Cc1nsc(/N=N/c2c(C(C)(C)C)nn3c(C(C)C)nn(C)c23)c1C#N` [Dye (13)], in data set [1], the Maximum absorption wavelength stood at 471 nm.
Turning to `CCn1nc(C(C)(C)C)c(C#N)c1/N=N/c1c(C(C)(C)C)nn2c(C)nn(CC)c12` [Dye (8)], the Light resistance entry in data set [2] was “A (80% or more, but 100% or less)”. Besides, the Precipitation entry in data set [3] is “A”. Further, the Solubility result in data set [4] is “A”. Besides, the Maximum absorption wavelength in data set [1] was 441 nm.
With `CCN(CCOc1ccc(C2CCCCC2)cc1)c1ccc(C=C(C#N)C#N)cc1` [Dye for Comparison 3, reference compound], the Light resistance result in data set [2] is “C (less than 60%)”. Besides, the Precipitation entry in data set [3] is reported as “A”. Also, the Solubility entry in data set [4] is listed as “A”.
For the compound `CCSc1nnc(/N=N/c2c(C(C)(C)C)nn3nc(C(C)C)n(C)c23)s1` [Dye (28)], in data set [2], the Light resistance result is recorded as “A (80% or more, but 100% or less)”. The Precipitation entry in data set [3] is “A”. The Solubility result in data set [4] was “A”.
Take `CCSc1nnc(N=Nc2c(C(C)(C)C)nn3c(C(C)C)n[nH]c23)s1` [Dye for Comparison 1, reference compound]: the Light resistance entry in data set [2] is “B (60% or more, but less than 100%)”. In data set [3], the Precipitation result was “B”. Moreover, in data set [4], the Solubility entry is “B”.
Regarding `CCSc1nnc(/N=N/c2c(C(C)(C)C)nn3c(C(C)C)nn(CC)c23)s1` [Dye (23)], the Light resistance entry in data set [2] is recorded as “A (80% or more, but 100% or less)”. The Precipitation entry in data set [3] is “A”. Further, the Solubility result in data set [4] is “A”. Further, the Maximum absorption wavelength in data set [1] came out at 449 nm.
Turning to `CCc1nn(C)c2c(/N=N/c3c(C#N)c(C(C)(C)C)nn3C)c(C(C)(C)C)nn12` [Dye (9)], in data set [2], the Light resistance result was “A (80% or more, but 100% or less)”. In data set [3], the Precipitation entry is recorded as “A”. For the same compound, the Solubility result in data set [4] was “A”. In data set [1], this compound yielded a Maximum absorption wavelength of 441 nm.
With `Cc1nn(C)c2c(/N=N/c3nc4ccccc4n3C)c(C(C)(C)C)nn12` [Dye (14)], in data set [2], the Light resistance entry is on record as “A (80% or more, but 100% or less)”. Further, the Precipitation result in data set [3] is on record as “A”. Moreover, the Solubility entry in data set [4] is reported as “A”.
For `Cc1nn(C)c2c(N=Nc3c(C#N)c(C(C)(C)C)nn3C)c(C(C)(C)C)nn12` [Dye (7)], the Light resistance result in data set [2] is recorded as “A (80% or more, but 100% or less)”. The Precipitation result in data set [3] is recorded as “A”. Besides, the Solubility result in data set [4] is on record as “A”. In data set [1], this compound registered a Maximum absorption wavelength of 442 nm.
Turning to `Cc1nn2nc(C(C)(C)C)c(N=Nc3c(C#N)c(C(C)(C)C)nn3C)c2n1C` [Dye (1)], in data set [2], the Light resistance result is recorded as “A (80% or more, but 100% or less)”. Moreover, in data set [3], the Precipitation entry is given as “A”. The Solubility result in data set [4] is “A”. The compound also gave a Maximum absorption wavelength in data set [1] of 434 nm.
On to `CC(C)c1nn(C)c2c(/N=N/c3c(C#N)c(C(C)(C)C)nn3C)c(C(C)(C)C)nn12` [Dye (10)], for which the Light resistance entry in data set [2] is “A (80% or more, but 100% or less)”. Besides, the Precipitation result in data set [3] was “A”. For the same compound, the Solubility result in data set [4] was “A”. Further, in data set [1], the Maximum absorption wavelength was 443 nm.
